Structures can show the parent of a compound that is named as a salt.
Tests used:
[1] = biological target: T1, human A1 adenosine receptors (Homo sapiens, UniProt P30542); test: Displacement of [3H]DPCPX binding at human A1 adenosine receptors expressed in CHO cells
T1 construct: expressed in transfected cells; host or cells: CHO cells
T1 sequence (P30542 1-326): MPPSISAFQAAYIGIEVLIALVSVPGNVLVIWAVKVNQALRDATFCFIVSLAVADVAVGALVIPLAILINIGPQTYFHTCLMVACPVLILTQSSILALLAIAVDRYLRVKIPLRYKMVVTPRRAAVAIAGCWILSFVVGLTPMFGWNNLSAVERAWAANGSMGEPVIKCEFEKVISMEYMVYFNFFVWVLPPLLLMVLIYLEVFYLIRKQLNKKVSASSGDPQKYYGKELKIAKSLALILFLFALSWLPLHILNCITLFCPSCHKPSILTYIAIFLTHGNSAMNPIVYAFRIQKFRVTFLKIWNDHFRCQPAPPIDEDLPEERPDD

[2] = biological target: T2, human A2A adenosine receptors (Homo sapiens, UniProt P29274); test: Displacement of [3H]SCH58261 binding at human A2A adenosine receptors expressed in CHO cells; conditions: for Ki: CHO cells; for affinity for A2A adenosine receptor subtype: in words, discussion of Tables 2 and 3
T2 construct: expressed in transfected cells; host or cells: CHO cells

[3] = biological target: T3, human A2B adenosine receptors (Homo sapiens, UniProt P29275); test: Displacement of [3H]DPCPX binding at human A2B adenosine receptors expressed in HEK-293 cells
T3 construct: expressed in transfected cells; host or cells: HEK-293 cells
T3 sequence (P29275 1-332): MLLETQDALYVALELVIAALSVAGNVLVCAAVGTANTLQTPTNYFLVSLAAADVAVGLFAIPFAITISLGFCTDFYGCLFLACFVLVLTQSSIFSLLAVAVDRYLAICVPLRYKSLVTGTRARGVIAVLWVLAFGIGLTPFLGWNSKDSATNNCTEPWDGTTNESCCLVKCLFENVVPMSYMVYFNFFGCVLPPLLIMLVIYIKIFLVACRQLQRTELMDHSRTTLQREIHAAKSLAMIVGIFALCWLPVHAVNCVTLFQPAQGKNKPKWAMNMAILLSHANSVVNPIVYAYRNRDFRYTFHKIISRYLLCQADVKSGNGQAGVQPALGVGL

[4] = biological target: T4, human A3 adenosine receptors (Homo sapiens, UniProt P0DMS8); test: Displacement of [3H]MRE 3008F20 binding at human A3 adenosine receptors expressed in CHO cells; parameters: expressed in transfected cells; host or cells: CHO cells; conditions: for affinity for / interaction with A3 adenosine receptor subtype: in words, discussion of Tables 2 and 3
T4 sequence (P0DMS8 1-318): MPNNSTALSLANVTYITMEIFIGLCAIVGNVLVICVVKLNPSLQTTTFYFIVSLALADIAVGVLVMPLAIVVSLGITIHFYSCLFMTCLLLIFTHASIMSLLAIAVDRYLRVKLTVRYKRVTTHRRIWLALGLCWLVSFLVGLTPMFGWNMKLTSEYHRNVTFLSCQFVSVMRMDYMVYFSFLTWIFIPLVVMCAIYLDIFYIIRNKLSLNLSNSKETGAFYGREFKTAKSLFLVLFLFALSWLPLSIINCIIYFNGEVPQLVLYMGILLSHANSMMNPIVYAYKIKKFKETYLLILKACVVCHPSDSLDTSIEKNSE

[5] = Table 3: [3H]DPCPX, human A1, CHO cells
[6] = Table 3: [3H]SCH58261, human A2A
[7] = Table 3: [3H]DPCPX, HEK-293 cells
[8] = Table 3: [3H]MRE 3008F20, human A3, CHO cells

T2 sequence (P29274 whole entry): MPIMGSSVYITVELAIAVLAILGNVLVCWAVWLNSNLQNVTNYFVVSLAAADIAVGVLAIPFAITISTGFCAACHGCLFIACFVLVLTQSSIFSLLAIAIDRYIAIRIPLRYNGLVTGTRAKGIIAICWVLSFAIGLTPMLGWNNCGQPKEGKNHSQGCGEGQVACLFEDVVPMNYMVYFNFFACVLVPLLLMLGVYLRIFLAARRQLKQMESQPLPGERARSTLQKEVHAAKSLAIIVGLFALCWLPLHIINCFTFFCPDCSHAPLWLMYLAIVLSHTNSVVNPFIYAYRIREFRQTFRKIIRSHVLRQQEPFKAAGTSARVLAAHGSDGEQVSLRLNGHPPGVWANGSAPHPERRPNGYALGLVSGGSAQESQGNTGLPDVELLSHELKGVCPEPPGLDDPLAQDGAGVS

Compound | Ki [1, 5] | Ki [2, 6] | affinity for A2A adenosine receptor subtype [2] | Ki [3, 7] | further results
CSc1c2c(nc(N)n3nc(-c4ccco4)nc23)nn1CCCc1ccccc1 [Compound 43, 2-Furan-2-yl-9-methylsulfanyl-8-(3-phenyl-propyl)-8H-pyrazolo[4,3-e][1,2,4]triazolo[1,5-c]pyrimidin-5-ylamine] | 175 nM | 22 nM | decrease of A2A interaction | 31 nM | 
Nc1nc2c(cnn2CCc2ccccc2)c2nc(-c3ccc(OCC(=O)Nc4ccc(I)cc4)cc3)nn12 [Compound 8, 2-[4-(5-Amino-7-phenethyl-7H-pyrazolo[4,3-e][1,2,4]triazolo[1,5-c]pyrimidin-2-yl)-phenoxy]-N-(4-iodo-phenyl)-acetamide] |  |  |  |  | Ki ([1]; Table 2, footnote b: [3H]DPCPX, human A1): > 1000 nM; Ki ([2]; Table 2, footnote b: [3H]SCH58261, human A2A): > 1000 nM; Ki ([3]; Table 2, footnote b: [3H]DPCPX): > 1000 nM; Ki ([4]; Table 2, footnote b: [3H]MRE 3008F20, human A3, CHO cells): > 1000 nM
COc1ccc(CC(=O)Nc2nc3nn(C)c(SC)c3c3nc(-c4ccco4)nn23)cc1 [Compound 47, N-(2-Furan-2-yl-8-methyl-9-methylsulfanyl-8H-pyrazolo[4,3-e][1,2,4]triazolo[1,5-c]pyrimidin-5-yl)-2-(4-methoxy-phenyl)-acetamide] | 80 nM | 15 nM | maintains A2A affinity | 45 nM | affinity for / interaction with A3 adenosine receptor subtype [4]: decreased
CCNc1c2c(nc(N)n3nc(-c4ccco4)nc23)nn1C [Compound 53, N9-Ethyl-2-furan-2-yl-8-methyl-8H-pyrazolo[4,3-e][1,2,4]triazolo[1,5-c]pyrimidine-5,9-diamine hydrochloride salt] |  |  |  |  | Ki ([1]; Table 3: [3H]DPCPX, human A1, CHO cells, hydrochloride salt): 41 nM; Ki ([3]; Table 3: [3H]DPCPX, HEK-293 cells, hydrochloride salt): 36 nM; Ki ([4]; Table 3: [3H]MRE 3008F20, human A3, CHO cells, hydrochloride salt): 25 nM
COc1ccc(NC(=O)Nc2nc3nn(C)c(SC)c3c3nc(-c4ccco4)nn23)cc1 [Compound 46, 1-(2-Furan-2-yl-8-methyl-9-methylsulfanyl-8H-pyrazolo[4,3-e][1,2,4]triazolo[1,5-c]pyrimidin-5-yl)-3-(4-methoxy-phenyl)-urea] | 70 nM | 3.1 nM |  | 24 nM | Ki [4, 8]: 212 nM; affinity for / interaction with A3 adenosine receptor subtype [4]: decreased
COc1ccc(Nc2c3c(nc(N)n4nc(-c5ccco5)nc34)nn2C)cc1 [Compound 39, 2-Furan-2-yl-N9-(4-methoxy-phenyl)-8-methyl-8H-pyrazolo[4,3-e][1,2,4]triazolo[1,5-c]pyrimidine-5,9-diamine] | 260 nM |  | useless |  | 
CN1CCN(c2c3c(nc(N)n4nc(-c5ccco5)nc34)nn2C)CC1 [Compound 40, 2-Furan-2-yl-8-methyl-9-(4-methyl-piperazin-1-yl)-8H-pyrazolo[4,3-e][1,2,4]triazolo[1,5-c]pyrimidin-5-ylamine] | 30 nM | 156 nM | useless | 35 nM | 
Cn1nc2nc(N)n3nc(-c4ccco4)nc3c2c1Nc1ccc(O)cc1 [Compound 52, 4-(5-Amino-2-furan-2-yl-8-methyl-8H-pyrazolo[4,3-e][1,2,4]triazolo[1,5-c]pyrimidin-9-ylamino)-phenol] | 666 nM |  | useless |  | Ki [4, 8]: 308 nM
CN1CCN(c2c3c(nc(N)n4nc(-c5ccco5)nc34)nn2C)CC1 [Compound 54, 2-Furan-2-yl-8-methyl-9-(4-methyl-piperazin-1-yl)-8H-pyrazolo[4,3-e][1,2,4]triazolo[1,5-c]pyrimidin-5-ylamine dihydrochloride salt] |  |  |  |  | Ki ([1]; Table 3: [3H]DPCPX, human A1, CHO cells, dihydrochloride salt): 48 nM; Ki ([2]; Table 3: [3H]SCH58261, human A2A, dihydrochloride salt): 135 nM; Ki ([3]; Table 3: [3H]DPCPX, HEK-293 cells, dihydrochloride salt): 12 nM
COc1ccc(NC(=O)Nc2nc3nn(C)c(N4CCN(C)CC4)c3c3nc(-c4ccco4)nn23)cc1 [Compound 45, 1-[2-Furan-2-yl-8-methyl-9-(4-methyl-piperazin-1-yl)-8H-pyrazolo[4,3-e][1,2,4]triazolo[1,5-c]pyrimidin-5-yl]-3-(4-methoxy-phenyl)-urea] | 316 nM |  |  | 26 nM | 

From patent US7064204B2, “Pharmaceutically active compounds having a tricyclic pyrazolotriazolopyrimidine ring structure and methods of use” (King Pharmacueticals Reserch and Development, Inc., priority 2002, dated 2006)
